Earlier results, collected in patent US7223553B2, “Immunoassays for everolimus” (priority 2004, dated 2007).
Where two headings read alike, the source gives them in different places.

Key:
[1] = heart transplant patients, first year post-transplant
[2] = kidney transplantation; consistent with efficacy while minimizing adverse effects

Everolimus trough levels ([1]; 1.5 mg/day): 5.2 ± 3.8 ng/mL | Everolimus trough levels ([1]; 3 mg/day): 9.4 ± 6.3 ng/mL
Substance: 40-O-(2-hydroxyethyl)-rapamycin [Everolimus]
Therapeutic concentration [2]: 3 to 15 ng/mL
